From ChEMBL document CHEMBL1806355, “Synthesis and evaluation of 1-cyclopropyl-2-thioalkyl-8-methoxy fluoroquinolones” (2011)
Values after ≈ are worked out from the molar mass of the structure shown. Active and inactive are the calls of the source. No cut-off for these calls is given here.

Key:
[1] = system: Mycolicibacterium smegmatis; assay: Antibacterial activity against Mycobacterium smegmatis KD1163; assay type: functional
[2] = system: Escherichia coli; assay: Antibacterial activity against tolC knockout Escherichia coli KD1397; assay type: functional
[3] = system: Escherichia coli; assay: Antibacterial activity against Escherichia coli KD65; assay type: functional
[4] = Inhibition of DNA gyrase

| inhibition [4] | SMILES | MIC [1] | MIC [2] | MIC [3] |
| --- | --- | --- | --- | --- |
|  | CC1Sc2cc(=O)c3cc(F)c(N4CCNCC4)cc3n21 (stereo unspecified) [DESCARBOXYULIFLOXACIN] | 200 µg/mL (≈ 655 µM) | 200 µg/mL (≈ 655 µM) | > 200 µg/mL |
| Active | CCSc1cc(=O)c2cc(F)c(N3C[C@@H]4CCCN[C@@H]4C3)c(OC)c2n1C1CC1 | > 200 µg/mL | 100 µg/mL (≈ 239 µM) | > 200 µg/mL |
|  | O=c1ccn(C2CC2)c2cc(N3CCNCC3)c(F)cc12 | 6.25 µg/mL (≈ 21.8 µM) | 1.56 µg/mL (≈ 5.43 µM) | 50 µg/mL (≈ 174 µM) |
|  | COc1c(N2C[C@@H]3CCCN[C@@H]3C2)c(F)cc2c(=O)ccn(C3CC3)c12 | > 200 µg/mL | 100 µg/mL (≈ 280 µM) | > 200 µg/mL |
| Active | COc1c(N2C[C@@H]3CCCN[C@@H]3C2)c(F)cc2c(=O)cc(SC(C)C)n(C3CC3)c12 | 50 µg/mL (≈ 116 µM) | 50 µg/mL (≈ 116 µM) | > 50 µg/mL |
| Active | CCSc1c(C(=O)O)c(=O)c2cc(F)c(N3CCNCC3)c(OC)c2n1C1CC1 | > 200 µg/mL | 12.5 µg/mL (≈ 29.7 µM) | 200 µg/mL (≈ 475 µM) |
|  | CC1Sc2c(C(=O)O)c(=O)c3cc(F)c(N4CCNCC4)cc3n21 (stereo unspecified) [ULIFLOXACIN] | 3.13 µg/mL (≈ 8.96 µM) | 0.016 µg/mL (≈ 0.0458 µM) | 0.062 µg/mL (≈ 0.177 µM) |
|  | COc1c(N2C[C@@H]3CCCN[C@@H]3C2)c(F)cc2c(=O)c(C(=O)O)cn(C3CC3)c12 [MOXIFLOXACIN] | 0.08 µg/mL (≈ 0.199 µM) | 0.004 µg/mL (≈ 0.00996 µM) | 0.156 µg/mL (≈ 0.389 µM) |
|  | O=C(O)c1cn(C2CC2)c2cc(N3CCNCC3)c(F)cc2c1=O [CIPROFLOXACIN] | 0.156 µg/mL (≈ 0.471 µM) |  | 0.04 µg/mL (≈ 0.121 µM) |
| Active | CCSc1c(C(=O)O)c(=O)c2cc(F)c(N3C[C@@H]4CCCN[C@@H]4C3)c(OC)c2n1C1CC1 | 50 µg/mL (≈ 108 µM) | > 50 µg/mL | > 50 µg/mL |

| SMILES | inhibition [4] | MIC [1] | MIC [2] | MIC [3] |
| --- | --- | --- | --- | --- |
| CCSc1cc(=O)c2cc(F)c(N3CCNCC3)c(OC)c2n1C1CC1 | Active | > 50 µg/mL | 25 µg/mL (≈ 66.2 µM) | > 50 µg/mL |
| COc1c(N2CCNCC2)c(F)cc2c(=O)cc(SC(C)C)n(C3CC3)c12 | Active | > 50 µg/mL | > 50 µg/mL | > 50 µg/mL |
